Measurements from patent US9023821B2, “Use of MicroRNA for treating diseases associated with a dysfunction of the cilia in multiciliated epithelial cells” (Centre National de la Recherche Scientifique, priority 2009, dated 2015).

System: human airway epithelial cells (HAECs)
Assay: High-throughput sequencing (HTS) of miRNAs at four stages of differentiation of HAECs
Conditions: for Modulation (ratio of the level of intensity of expression in log2 in two stages of differentiation), D7 − D0 / Modulation (ratio of the level of intensity of expression in log2 in two stages of differentiation), FC − D7 / Modulation (ratio of the level of intensity of expression in log2 in two stages of differentiation), WD − D0 / Modulation (ratio of the level of intensity of expression in log2 in two stages of differentiation), WD − FC / Abundance (%), D0 / Level of intensity of expression in log2, D0 / Abundance (%), D7 / Level of intensity of expression in log2, D7 / Abundance (%), FC / Level of intensity of expression in log2, FC / Abundance (%), WD / Level of intensity of expression in log2, WD: HTS; for Abundance (%), D0: ALI-D0; for Level of intensity of expression in log2, D0: ALI-D0 (proliferation); for Abundance (%), D7: ALI-D7; for Level of intensity of expression in log2, D7: ALI-D7 (proliferation and polarization); for Abundance (%), FC: ALI-FC; for Level of intensity of expression in log2, FC: ALI-FC (start of ciliogenesis); for Abundance (%), WD: ALI-WD; for Level of intensity of expression in log2, WD: ALI-WD (wholly differentiated epithelium); for Level of intensity of expression in log2 At the differentiated stage (WD) measured in HTS: healthy human airway epithelial tissue
Description: The total RNAs were extracted from HAECs cultivated at the air-liquid interface at four stages of differentiation: ALI-D0 (0 day), ALI-D7 (7 days), ALI-FC (during appearance of the first cilia at about 14 days) and ALI-WD (wholly differentiated at about 21 days). The cells are lysed in reagent with Trizol® (Invitrogen). The total RNAs containing small RNAs and microRNAs are purified on Qiagen RNEasy columns (Qiagen) according to the supplier's instructions.
The total RNAs containing small RNAs and microRNAs are isolated as before. The procedure is based on the Applied Biosystems Ligase-Enhanced Genome Detection technology (LEGenD™); the SOLiD™ Small RNA Expression kit (Applied Biosystems, France) was used. With this method it is possible to convert the small RNAs of a sample into a library of double-stranded DNA; it was developed by Applied Biosystems SOLiD™ System for a new generation of high-throughput sequencing.
The high-throughput sequencing of the microRNAs was carried out according to the supplier's recommendations. Briefly, the total RNAs containing the small RNAs are hybridized (65° C., 10 min, then at 16° C., 5 min) and ligated (16° C., 2-16 h in a thermocycler) with the Adaptor Mix A for producing a matrix for sequencing the 5′ end of the small RNAs, or with the Adaptor Mix B for sequencing the 3′ end. The samples are then reverse-transcribed (42° C., 30 min) to synthesize the complementary DNA (cDNA). The library of small RNAs is amplified by PCR and after migration on polyacrylamide gel the amplified small RNAs are cut out and extracted from the gel according to their size (length of about 105-150 bases, according to the supplier's instructions), eluted and resuspended in nuclease-free water. The concentration of nucleic acids is then measured and normalized before proceeding with preparation of the samples for sequencing.
For each microRNA sequenced, the number of sequences of the 5p strand and of the 3p strand of the microRNA was normalized to 10^6 sequences and converted to percentage abundance of expression for each of the microRNAs. The data were then normalized according to a linear model and an empirical Bayesian method using software R. For subsequent analyses, only the microRNAs were retained for which the percentage expression (or abundance) is greater than 1% of the total of the microRNAs in at least one culture condition, with a |Log2 Ratio| below 0.5 and an adjusted P-value below 0.05.

## hsa-miR-449c: human miRNA, SEQ ID No. 201 (UAGGCAGUGUAUUGCUAGCGGCUGU; expressed or natural sequence; listed as Homo sapiens)
  Modulation (ratio of the level of intensity of expression in log2 in two stages of differentiation), D7 − D0: 2.59 log2
  Modulation (ratio of the level of intensity of expression in log2 in two stages of differentiation), FC − D7: 7.44 log2
  Modulation (ratio of the level of intensity of expression in log2 in two stages of differentiation), WD − D0: 9.44 log2
  Modulation (ratio of the level of intensity of expression in log2 in two stages of differentiation), WD − FC: −0.59 log2
  Abundance (%), D0: 0.00%
  Level of intensity of expression in log2, D0: 1.54 log2
  Abundance (%), D7: 0.00%
  Level of intensity of expression in log2, D7: 4.13 log2
  Abundance (%), FC: 0.32%
  Level of intensity of expression in log2, FC: 11.57 log2
  Abundance (%), WD: 0.20%
  Level of intensity of expression in log2, WD: 10.98 log2
  Level of intensity of expression in log2 At the differentiated stage (WD) measured in HTS: 10.98 log2

## hsa-miR-1975: human miRNA, SEQ ID No. 15 (CCCCCACAACCGCGCUUGACUAGCU; expressed or natural sequence; listed as Homo sapiens)
  Modulation (ratio of the level of intensity of expression in log2 in two stages of differentiation), D7 − D0: 2.13 log2
  Modulation (ratio of the level of intensity of expression in log2 in two stages of differentiation), FC − D7: 0.34 log2
  Modulation (ratio of the level of intensity of expression in log2 in two stages of differentiation), WD − D0: 2.93 log2
  Modulation (ratio of the level of intensity of expression in log2 in two stages of differentiation), WD − FC: 0.46 log2
  Abundance (%), D0: 0.48%
  Level of intensity of expression in log2, D0: 11.08 log2
  Abundance (%), D7: 2.09%
  Level of intensity of expression in log2, D7: 13.22 log2
  Abundance (%), FC: 2.56%
  Level of intensity of expression in log2, FC: 13.55 log2
  Abundance (%), WD: 2.67%
  Level of intensity of expression in log2, WD: 14.01 log2
  Level of intensity of expression in log2 At the differentiated stage (WD) measured in HTS: 11.22 log2
